Assay results reported in BindingDB's records for doi:10.7270/Q2MP51PC (Pcmd, 2008).

target: T1, Complement C1s subcomponent (Homo sapiens, UniProt P09871); assay: C1s inhibitor IC50 values, dose response, biochemical (AID 787)
T1 sequence (P09871 whole entry): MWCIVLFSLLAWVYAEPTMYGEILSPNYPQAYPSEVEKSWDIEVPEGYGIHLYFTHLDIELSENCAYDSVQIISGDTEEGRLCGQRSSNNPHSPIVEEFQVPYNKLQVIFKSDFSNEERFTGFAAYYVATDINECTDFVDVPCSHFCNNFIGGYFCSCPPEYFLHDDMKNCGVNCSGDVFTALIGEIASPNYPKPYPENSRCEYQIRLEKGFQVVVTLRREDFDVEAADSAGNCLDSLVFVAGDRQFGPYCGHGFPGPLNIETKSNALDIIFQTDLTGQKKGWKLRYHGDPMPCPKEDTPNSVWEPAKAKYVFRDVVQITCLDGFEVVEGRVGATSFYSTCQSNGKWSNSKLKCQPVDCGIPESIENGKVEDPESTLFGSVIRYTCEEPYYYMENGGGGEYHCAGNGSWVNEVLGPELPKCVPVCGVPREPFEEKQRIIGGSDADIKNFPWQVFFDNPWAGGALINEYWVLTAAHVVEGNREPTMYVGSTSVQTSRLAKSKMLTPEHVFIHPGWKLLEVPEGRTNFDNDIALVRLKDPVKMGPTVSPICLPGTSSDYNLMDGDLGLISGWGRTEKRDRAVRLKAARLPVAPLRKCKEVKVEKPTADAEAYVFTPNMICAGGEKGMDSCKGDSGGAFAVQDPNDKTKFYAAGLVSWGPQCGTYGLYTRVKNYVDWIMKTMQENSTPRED

| IC50 [µM] | SMILES |
| --- | --- |
| > 50 | COc1ccc(Cl)cc1NC(=O)CCN1CCN(c2ccccc2C)CC1 [MLS000075926] |
| > 50 | O=C(Nc1cc(Cl)ccc1N1CCOCC1)c1cnccn1 [MLS000076142] |
| > 50 | COc1cccc(NC(=O)CCP(C)(=O)O)c1 [MLS000079835] |
| > 50 | CCC(=O)Nc1ccc(C(=O)Nc2ccc3c(c2)OCO3)cc1 [MLS000085289] |
| > 50 | CC1(C)COCN1S(=O)(=O)c1ccc(C(=O)Nc2nnc(-c3ccc(Cl)s3)o2)cc1 [MLS000086346] |
| 14 | O=C(NCCc1ccccc1)c1noc2c1CCc1ccccc1-2 [MLS000087424] |
| > 50 | CCCN(c1nc(C)cc(OC)n1)S(=O)(=O)c1ccccc1 [MLS000087928] |
| > 50 | COc1ccc(S(=O)(=O)N2CCOCC2)cc1C(=O)Nc1nc2ccccc2s1 [MLS000088961] |
| > 50 | Cc1cc(=O)[nH]c(SCC(=O)c2ccc(C(C)C)cc2)n1 [MLS000089861] |
| 34.7 | CCC(=O)Nc1cccc(-c2nc3ccccc3c(=O)o2)c1 [MLS000090237] |
| > 50 | CCc1ccccc1N(C(=O)c1cccs1)C1C=CS(=O)(=O)C1 (stereo not given) [MLS000093437] |
| > 50 | CCCCC(=O)Nc1ccc(NC(=O)c2ccc3c(c2)OCO3)cc1OC [MLS000097195] |
| 10.1 | CCc1cc(=O)oc2cc(C)cc(OC(=O)c3ccco3)c12 [MLS000099547] |
| > 50 | COc1cc(C)nc(NS(=O)(=O)c2ccccc2)n1 [MLS000100375] |
| > 50 | CC(=O)Nc1ccc(NC(C)=O)s1 [MLS000105054] |
| > 50 | O=C1CCCC(=O)C1=CNCCc1ccccc1 [MLS000108318] |
| > 50 | Cc1csc(NC(=O)c2ccco2)n1 [MLS000108918] |
| > 50 | COc1ccccc1CNC(=O)C1COc2ccccc2O1 (stereo not given) [MLS000110123] |
| > 50 | CCCCN1C(=O)/C(=C2\SC(N3CCCCC3)=NC2=O)c2ccccc21 [MLS000111979] |
| > 50 | CC1CCCN(C(C(=O)Nc2ccc3c(c2)OCO3)c2ccccc2)C1 (stereo not given) [MLS000116117] |

| IC50 [µM] | SMILES |
| --- | --- |
| > 50 | CN(CCNC(=O)Cn1c(=O)sc2ccccc21)Cc1ccccc1 [MLS000116175] |
| > 50 | COc1ccc2c(c1)CCc1c(C(=O)NCc3ccc(F)cc3)noc1-2 [MLS000116425] |
| > 50 | Cc1nc(C)c(C(=O)Nc2cccc(C)c2C)o1 [MLS000118537] |
| > 50 | Cn1c(Cn2c(=O)sc3ccccc32)nnc1SCC(=O)NCc1ccccc1Cl [MLS000118585] |
| > 50 | Cc1ccc(CCN2C(=O)CCC2(C)C(=O)NC2CCCC2)cc1 (stereo not given) [MLS000120119] |
| > 50 | COc1ccccc1S(=O)(=O)Cc1ccc(C(=O)NCCN(C)C)o1 [MLS000120198] |
| > 50 | COc1ccc2cc(CCNC(=O)C(C)C)c(=O)[nH]c2c1 [N-[2-(7-methoxy-2-oxo-1H-quinolin-3-yl)ethyl]-2-methylpropanamide] |
| 0.38 | CCCC(=O)Nc1ccc(C(=O)n2nnc3ccccc32)cc1 [N-[4-(1H-1,2,3-benzotriazol-1-ylcarbonyl)phenyl]butanamide] |
| > 50 | Cc1ccc(-c2noc(CN(C(=O)C34CC5CC(CC(C5)C3)C4)C(C)C)n2)cc1 [N-[[3-(4-methylphenyl)-1,2,4-oxadiazol-5-yl]methyl]-N-propan-2-yl-1-adamantanecarboxamide] |
| > 50 | CCCCn1c(=O)cc(N2CCOCC2)[nH]c1=O [SMR000018178] |
| > 50 | COc1ccc(NC(=O)c2[nH]cnc2C(=O)Nc2ccccc2C)cc1 [SMR000020470] |
| > 50 | CCc1nn(C(C)C(=O)NCCN2CCN(c3cccc(C)c3C)CC2)c(=O)c2cc3occc3n12 (stereo not given) [SMR000029605] |
| > 50 | COc1ccccc1/N=C/c1nc(-c2ccccc2)oc1OC(C)=O [SMR000039734] |
| > 50 | COc1ccc(NC(=O)CSC2=NC3=C(C(=O)CCC3)C(c3ccco3)C2C#N)c(OC)c1 (stereo not given) [SMR000042323] |
| > 50 | CCOc1ccc2[nH]c3c(N4CCN(c5ccccn5)CC4)ncnc3c2c1 [SMR000044529] |
| 5.35 | Cc1nn(C(=O)c2ccccc2)c2c1C(=O)CC(C)(C)C2 [SMR000069174] |
| 25.9 | CC(=O)c1c(OC(=O)c2ccco2)c2ccccc2n1C [SMR000109417] |
| 2.14 | Cc1cc(OC(=O)c2ccccc2)n(CCC#N)n1 [[2-(2-cyanoethyl)-5-methyl-pyrazol-3-yl] benzoate] |
| 0.9 | CSc1nc(-c2ccco2)nn1C(=O)c1ccc(C)cc1 [[3-(furan-2-yl)-5-methylsulfanyl-1,2,4-triazol-1-yl]-(4-methylphenyl)methanone] |
| 0.88 | CSc1nc(-c2ccco2)nn1C(=O)c1cccs1 [[3-(furan-2-yl)-5-methylsulfanyl-1,2,4-triazol-1-yl]-thiophen-2-ylmethanone] |
